# In publication PMC12295086, “CtGH76, a Glycoside Hydrolase 76 from Chaetomium thermophilum, with Elongated Glycan-Binding Canyon” (International Journal of Molecular Sciences, 2025):
# Biological target: T1, CtGH76 (Thermochaetoides thermophila, UniProt G0S5Y9)
# T1 construct: gene CTHT_0025410; M1-M50 omitted (precursor 439 aa, predicted signal peptide M1-V60); N-terminal His10-tag removed with TEV; pET28a, E. coli SHuffle T7 Express; one molecule per asymmetric unit
# Assay: X-ray crystal structure, crystal soaking
# Type: binding
# Settings: soaked with mannose; subsites −4, −2 and +3
# T1 sequence (G0S5Y9 entry or part of it): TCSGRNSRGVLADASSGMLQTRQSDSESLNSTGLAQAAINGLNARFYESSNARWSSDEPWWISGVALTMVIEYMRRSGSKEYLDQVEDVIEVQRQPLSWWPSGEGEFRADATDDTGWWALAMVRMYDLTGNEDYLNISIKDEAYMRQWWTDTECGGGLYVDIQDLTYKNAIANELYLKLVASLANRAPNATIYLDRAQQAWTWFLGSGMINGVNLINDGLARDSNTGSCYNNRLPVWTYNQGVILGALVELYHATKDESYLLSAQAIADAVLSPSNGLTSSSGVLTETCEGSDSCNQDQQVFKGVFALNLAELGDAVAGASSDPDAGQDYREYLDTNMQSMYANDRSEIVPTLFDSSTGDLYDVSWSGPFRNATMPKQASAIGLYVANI
smiles,measurement,value
OC[C@H]1OC(O)[C@@H](O)[C@@H](O)[C@@H]1O (stereo partly shown) [mannose],"X-ray crystal structure, crystal soaking",Soaking with mannose in CtGH76 identified potential sugar-binding subsites analogous to CtDfg5
